Our source for the IC50 values is ChEMBL document CHEMBL5131471, “Design, synthesis and mechanism studies of novel dual PARP1/BRD4 inhibitors against pancreatic cancer” (Eur J Med Chem, 2022).

What is called IC50 is the concentration that inhibits the measured activity by half.

The target of assay [1] is Bromodomain-containing protein 4 (Homo sapiens, UniProt O60885). Briefly: Inhibition of BRD4-BD1/2 (unknown origin).
Assay [2] deals with Poly [ADP-ribose] polymerase 1 (Homo sapiens, UniProt P09874). The experiment in a line: Inhibition of PARP1 (unknown origin) using biotinylated NAD+ as substrate by microplate reader method.
Sequence of Poly [ADP-ribose] polymerase 1 (P09874 whole entry): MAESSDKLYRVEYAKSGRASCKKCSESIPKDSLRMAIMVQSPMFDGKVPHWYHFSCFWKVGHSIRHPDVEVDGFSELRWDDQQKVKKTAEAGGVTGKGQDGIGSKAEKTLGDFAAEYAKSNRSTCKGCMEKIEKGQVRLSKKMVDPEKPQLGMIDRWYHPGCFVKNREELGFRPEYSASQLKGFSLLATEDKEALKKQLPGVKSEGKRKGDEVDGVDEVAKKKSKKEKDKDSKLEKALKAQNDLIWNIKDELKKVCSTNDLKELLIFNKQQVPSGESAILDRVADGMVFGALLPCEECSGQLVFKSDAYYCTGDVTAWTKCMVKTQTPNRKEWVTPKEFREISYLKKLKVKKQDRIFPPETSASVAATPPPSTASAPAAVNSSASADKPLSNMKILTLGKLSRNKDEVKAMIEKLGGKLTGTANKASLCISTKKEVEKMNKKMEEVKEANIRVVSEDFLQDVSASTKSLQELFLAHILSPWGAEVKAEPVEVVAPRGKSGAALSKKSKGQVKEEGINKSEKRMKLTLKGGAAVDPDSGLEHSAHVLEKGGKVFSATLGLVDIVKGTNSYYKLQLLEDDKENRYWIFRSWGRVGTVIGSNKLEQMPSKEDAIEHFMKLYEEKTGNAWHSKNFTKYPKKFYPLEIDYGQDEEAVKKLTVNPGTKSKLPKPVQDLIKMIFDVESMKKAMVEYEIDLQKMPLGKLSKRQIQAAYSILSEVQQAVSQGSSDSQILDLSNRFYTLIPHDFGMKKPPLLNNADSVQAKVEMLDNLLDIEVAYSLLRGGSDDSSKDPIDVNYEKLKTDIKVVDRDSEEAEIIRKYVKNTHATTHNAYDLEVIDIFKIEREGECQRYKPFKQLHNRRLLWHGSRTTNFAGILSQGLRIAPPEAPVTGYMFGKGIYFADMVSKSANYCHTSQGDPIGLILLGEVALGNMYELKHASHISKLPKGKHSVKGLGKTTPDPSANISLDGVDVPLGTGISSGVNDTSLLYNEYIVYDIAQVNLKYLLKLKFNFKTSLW
A further assay concerns MDA-MB-231. Briefly: Antiproliferative activity against BRCA-proficient human MDA-MB-231 cells assessed as inhibition of cell growth measured after 7 days by MTT assay. Type of assay: functional, cell-based. Conditions: MDA-MB-231, 168 h. (Tetrazolium assays rely on reduction of a dye to a coloured formazan, in cell work by metabolically active cells.)
The test system of a further assay is MDA-MB-468. Briefly: Antiproliferative activity against BRCA-proficient human MDA-MB-468 cells assessed as inhibition of cell growth measured after 7 days by MTT assay. Type of assay: functional, cell-based. To be noted: MDA-MB-468, 168 h.
The subject of the next assay is THP-1. The experiment in a line: Antiproliferative activity against human THP-1 cells expressing BRD4 assessed as inhibition of cell growth measured after 3 days by MTT assay. Format: functional, cell-based. Conditions: THP-1, 72 h.
The test system of a further assay is HCT-116. The experiment in a line: Antiproliferative activity against BRCA2-mutated human HCT-116 cells assessed as inhibition of cell growth measured after 7 days by MTT assay. Type of assay: functional, cell-based. To be noted: HCT-116, 168 h.
The next assay relates to CFPAC-1. Briefly: Antiproliferative activity against human CFPAC-1 cells assessed as inhibition of cell growth measured after 4 days by MTT assay. Format: functional, cell-based. To be noted: CFPAC-1, 96 h.
In the next assay the test system is SW1990. Briefly: Antiproliferative activity against human SW1990 cells assessed as inhibition of cell growth measured after 4 days by MTT assay. Format: functional, cell-based. To be noted: SW1990, 96 h.
Another assay concerns CAPAN-1. The experiment in a line: Antiproliferative activity against human CAPAN-1 cells assessed as inhibition of cell growth measured after 4 days by MTT assay. Type of assay: functional, cell-based. To be noted: CAPAN-1, 96 h.

For the molecule `Cc1noc(C)c1-c1ccc2c(c1)C(c1ccccc1)N(CC(=O)N[C@@H](C)c1nc3c(C(N)=O)cccc3[nH]1)C(=O)N2` (stereo partly specified), the IC50 in [1] is 90 nM; in assay [2], 52 nM; in the assay on MDA-MB-231, 2630 nM; with MDA-MB-468, 1040 nM; in the assay on THP-1, 1660 nM; in the assay with HCT-116, 16500 nM.
For `Cc1noc(C)c1-c1ccc2c(c1)C(c1ccccc1)N(CC(=O)NCc1nc3c(C(N)=O)cccc3[nH]1)C(=O)N2C` (stereo unspecified), the figures for the half-inhibitory concentration (IC50) in assay [1] and in assay [2] were 534 nM and 73 nM, respectively.
On to `Cc1noc(C)c1-c1ccc2c(c1)C(c1ccccc1)N(CC(=O)c1nc3c(C(N)=O)cccc3[nH]1)C(=O)N2` (stereo unspecified), for which the IC50 in assay [1] was determined as 132 nM; in [2] it was 116 nM; with MDA-MB-231, 8090 nM; with MDA-MB-468 it was 2590 nM; with THP-1, 4090 nM; with HCT-116, 44400 nM.
For `Cc1noc(C)c1-c1ccc2c(c1)C(c1ccccc1)N(CC(=O)N[C@@H](C)c1nc3c(C(N)=O)cccc3[nH]1)C(=O)N2C` (stereo partly specified), the 50% inhibitory concentration (IC50) is 326 nM in assay [1]; 187 nM in assay [2]; 520 nM with MDA-MB-231; 380 nM in the assay with MDA-MB-468; 740 nM in the assay with THP-1; 5290 nM with HCT-116.
As for `Cc1noc(C)c1-c1ccc2c(c1)C(c1ccccc1)N(Cc1nc3c(C(N)=O)cccc3[nH]1)C(=O)N2` (stereo unspecified), the concentration for half-maximal inhibition (IC50) in the assay on CFPAC-1 is 2030 nM; in assay [1], 43 nM; in assay [2] it was 361 nM; in the assay with SW1990, 2520 nM; in the assay on MDA-MB-231, 1320 nM; in the assay with MDA-MB-468 it was 1120 nM. Besides, the values for the IC50 with THP-1, in the assay with CAPAN-1 and in the assay on HCT-116 were 210 nM, 2310 nM and 3720 nM, respectively.
Turning to `Cc1noc(C)c1-c1ccc2c(c1)C(c1ccccc1)N(CC(=O)NC(C)(C)c1nc3c(C(N)=O)cccc3[nH]1)C(=O)N2` (stereo unspecified), the concentration for half-maximal inhibition (IC50) in the assay with CFPAC-1 was 2560 nM; in assay [1], 102 nM; in assay [2], 62 nM; with SW1990, 3880 nM; with MDA-MB-231 it was 920 nM; with MDA-MB-468, 460 nM. Also, the IC50 with THP-1 is 690 nM; with CAPAN-1, 3710 nM; in the assay with HCT-116, 11800 nM.
Turning to `Cc1noc(C)c1-c1ccc2c(c1)C(c1ccccc1)N(CC(=O)NC(c1nc3c(C(N)=O)cccc3[nH]1)C(C)C)C(=O)N2` (stereo unspecified), the IC50 was 114 nM in assay [1] and 326 nM in [2].
As to `Cc1noc(C)c1-c1ccc2c(c1)C(c1ccccc1)N(CC(=O)N[C@H](C)c1nc3c(C(N)=O)cccc3[nH]1)C(=O)N2` (stereo partly specified), the IC50 in [1] was 116 nM; in assay [2], 112 nM; in the assay on MDA-MB-231, 2600 nM; in the assay with MDA-MB-468, 930 nM; with THP-1, 1530 nM; in the assay on HCT-116, 16900 nM.
